Experimental data reported in ChEMBL document CHEMBL3046832, “Synthesis of some sulfonamides, disubstituted sulfonylureas or thioureas and some structurally related variants. A class of promising antitumor agents” (2007).

What was measured:
Format in all cases: functional
[1] = tested on: M14; assay: Cytotoxicity against Homo sapiens (human) M14 cells after 48 hr by SRB assay; conditions: M14, 48 h
[2] = tested on: LOX IMVI; assay: Cytotoxicity against Homo sapiens (human) LOXIMVI cells after 48 hr by SRB assay
[3] = tested on: U-251; assay: Cytotoxicity against Homo sapiens (human) U251 cells after 48 hr by SRB assay; conditions: U-251, 48 h
[4] = tested on: SNB-75; assay: Cytotoxicity against Homo sapiens (human) SNB75 cells after 48 hr by SRB assay; conditions: SNB-75, 48 h
[5] = tested on: Hs-578T; assay: Cytotoxicity against Homo sapiens (human) Hs578T cells after 48 hr by SRB assay
[6] = tested on: DU-145; assay: Cytotoxicity against Homo sapiens (human) DU145 cells after 48 hr by SRB assay; conditions: DU-145, 48 h
[7] = tested on: UO-31; assay: Cytotoxicity against Homo sapiens (human) UO31 cells after 48 hr by SRB assay; conditions: UO-31, 48 h
[8] = tested on: RXF 393; assay: Cytotoxicity against Homo sapiens (human) RXF393 cells after 48 hr by SRB assay; conditions: RXF 393, 48 h
[9] = tested on: CAKI-1; assay: Cytotoxicity against Homo sapiens (human) Caki1 cells after 48 hr by SRB assay; conditions: CAKI-1, 48 h
[10] = tested on: ACHN; assay: Cytotoxicity against Homo sapiens (human) ACHN cells after 48 hr by SRB assay
[11] = tested on: 786-0; assay: Cytotoxicity against Homo sapiens (human) 786-0 cells after 48 hr by SRB assay; conditions: 786-0, 48 h
[12] = Cytotoxicity against Homo sapiens (human) NCI-ADR-RES cells after 48 hr by SRB assay
[13] = tested on: SK-OV-3; assay: Cytotoxicity against Homo sapiens (human) SKOV3 cells after 48 hr by SRB assay; conditions: SK-OV-3, 48 h
[14] = tested on: IGROV-1; assay: Cytotoxicity against Homo sapiens (human) IGROV1 cells after 48 hr by SRB assay; conditions: IGROV-1, 48 h
[15] = tested on: OVCAR-3; assay: Cytotoxicity against Homo sapiens (human) OVCAR3 cells after 48 hr by SRB assay; conditions: OVCAR-3, 48 h
[16] = tested on: UACC-62; assay: Cytotoxicity against Homo sapiens (human) UACC62 cells after 48 hr by SRB assay; conditions: UACC-62, 48 h
[17] = tested on: SK-MEL-5; assay: Cytotoxicity against Homo sapiens (human) SK-MEL-5 cells after 48 hr by SRB assay; conditions: SK-MEL-5, 48 h
[18] = tested on: SK-MEL-28; assay: Cytotoxicity against Homo sapiens (human) SK-MEL-28 cells after 48 hr by SRB assay; conditions: SK-MEL-28, 48 h
[19] = Cytotoxicity against Homo sapiens (human) breast cancer cells after 48 hr by SRB assay; conditions: Cancer cell lines
[20] = Cytotoxicity against Homo sapiens (human) prostate cancer cells after 48 hr by SRB assay; conditions: Cancer cell lines
[21] = Cytotoxicity against Homo sapiens (human) renal cancer cells after 48 hr by SRB assay; conditions: Cancer cell lines
[22] = Cytotoxicity against Homo sapiens (human) ovarian cancer cells after 48 hr by SRB assay; conditions: Cancer cell lines
[23] = Cytotoxicity against Homo sapiens (human) CNS cancer cells after 48 hr by SRB assay; conditions: Cancer cell lines
[24] = Cytotoxicity against Homo sapiens (human) colon cancer cells after 48 hr by SRB assay; conditions: Cancer cell lines
[25] = Cytotoxicity against Homo sapiens (human) non-small cell lung cancer cells after 48 hr by SRB assay; conditions: Cancer cell lines
[26] = tested on: NCI-H460; assay: Cytotoxicity against Homo sapiens (human) NCI-H460 cells assessed as cellular growth after 48 hr by Alamar blue assay; design: concentration or dose not given beside the values
[27] = Cytotoxicity against Homo sapiens (human) leukemia cells after 48 hr by SRB assay; conditions: Leukemia cell
[28] = tested on: SF-268; assay: Cytotoxicity against Homo sapiens (human) SF268 cells assessed as cellular growth after 48 hr by Alamar blue assay; design: concentration or dose not given beside the values
[29] = tested on: BT-549; assay: Cytotoxicity against Homo sapiens (human) BT549 cells after 48 hr by SRB assay; conditions: BT-549, 48 h
[30] = tested on: T47D; assay: Cytotoxicity against Homo sapiens (human) T47D cells after 48 hr by SRB assay
[31] = tested on: SNB-19; assay: Cytotoxicity against Homo sapiens (human) SNB19 cells after 48 hr by SRB assay; conditions: SNB-19, 48 h
[32] = tested on: SW-620; assay: Cytotoxicity against Homo sapiens (human) SW620 cells after 48 hr by SRB assay; conditions: SW-620, 48 h
[33] = tested on: SF-268; assay: Cytotoxicity against Homo sapiens (human) SF268 cells after 48 hr by SRB assay; conditions: SF-268, 48 h
[34] = tested on: KM12; assay: Cytotoxicity against Homo sapiens (human) KM12 cells after 48 hr by SRB assay; conditions: KM12, 48 h
[35] = tested on: HCT-15; assay: Cytotoxicity against Homo sapiens (human) HCT15 cells after 48 hr by SRB assay; conditions: HCT-15, 48 h
[36] = tested on: HT-29; assay: Cytotoxicity against Homo sapiens (human) HT-29 cells after 48 hr by SRB assay; conditions: HT-29, 48 h
[37] = tested on: HCC 2998; assay: Cytotoxicity against Homo sapiens (human) HCC2998 cells after 48 hr by SRB assay; conditions: HCC 2998, 48 h
[38] = tested on: NCI-H522; assay: Cytotoxicity against Homo sapiens (human) NCI-H522 cells after 48 hr by SRB assay; conditions: NCI-H522, 48 h
[39] = tested on: NCI-H23; assay: Cytotoxicity against Homo sapiens (human) NCI-H23 cells after 48 hr by SRB assay; conditions: NCI-H23, 48 h
[40] = Cytotoxicity against Homo sapiens (human) NCI-H322 cells after 48 hr by SRB assay; conditions: NCI-H322, 48 h
[41] = tested on: NCI-H460; assay: Cytotoxicity against Homo sapiens (human) NCI-H460 cells after 48 hr by SRB assay; conditions: NCI-H460, 48 h
[42] = tested on: HOP-92; assay: Cytotoxicity against Homo sapiens (human) HOP92 cells after 48 hr by SRB assay; conditions: HOP-92, 48 h
[43] = tested on: EKVX; assay: Cytotoxicity against Homo sapiens (human) EKVX cells after 48 hr by SRB assay
[44] = tested on: RPMI-8226; assay: Cytotoxicity against Homo sapiens (human) RPMI8226 cells after 48 hr by SRB assay; conditions: RPMI-8226, 48 h
[45] = tested on: A549; assay: Cytotoxicity against Homo sapiens (human) A549 cells after 48 hr by SRB assay; conditions: A549, 48 h
[46] = tested on: MOLT-4; assay: Cytotoxicity against Homo sapiens (human) MOLT4 cells after 48 hr by SRB assay; conditions: MOLT-4, 48 h
[47] = tested on: CCRF-CEM; assay: Cytotoxicity against Homo sapiens (human) CCRF-CEM cells after 48 hr by SRB assay

Molecule `NS(=O)(=O)c1ccc(N2N=C3c4ccccc4CC3C2c2cccs2)cc1` (stereo not given) has a GI50 [1] of 26 µM, a GI50 [2] of 19.1 µM and a GI50 [3] of 19.4 µM. For the same molecule, the GI50 [4] was 31.1 µM, the GI50 [5] was 28.7 µM and the GI50 [6] was 14.5 µM. The GI50 [7] was 39.4 µM, the GI50 [8] was 20.6 µM and the GI50 [9] was 19.6 µM. For the same molecule, the GI50 [10] was 19.8 µM, the GI50 [11] was 17.6 µM and the GI50 [12] was 17.1 µM. For the same molecule, the GI50 [13] was 48 µM, the GI50 [14] was 30 µM and the GI50 [15] was 24.8 µM. It also gave a GI50 [16] of 21.8 µM, a GI50 [17] of 18 µM and a GI50 [18] of 75.6 µM. The GI50 [19] was 38.3 µM, the TGI [19] was 52.1 µM and the GI50 [20] was 18.3 µM. For the same molecule, the TGI [20] was 48.6 µM, the GI50 [21] was 21.9 µM and the TGI [21] was 43.7 µM. For the same molecule, the GI50 [22] was 40.8 µM, the TGI [22] was 79.6 µM and the GI50 [23] was 36.4 µM. For the same molecule, the TGI [23] was 70.3 µM, the GI50 [24] was 28 µM and the TGI [24] was 74.5 µM. The GI50 [25] was 29.6 µM, the TGI [25] was 45.5 µM and the Activity [26] was “<=32%”. The GI50 [27] was 35.1 µM, the TGI [27] was 95.5 µM and the Activity [28] was “<=32%”. It also gave a GI50 [29] of 19.3 µM, a GI50 [30] of 66.9 µM and a GI50 [31] of 34.4 µM. It also gave a GI50 [32] of 35.4 µM, a GI50 [33] of over 100 µM and a GI50 [34] of 15.7 µM. It also gave a GI50 [35] of 34.7 µM, a GI50 [36] of 26.1 µM and a GI50 [37] of 14.8 µM. The GI50 [38] was 39.3 µM, the GI50 [39] was 20.3 µM and the GI50 [40] was 5.79 µM. For the same molecule, the GI50 [41] was over 100 µM, the GI50 [42] was 25.8 µM and the GI50 [43] was 15.9 µM. For the same molecule, the GI50 [44] was 32.3 µM, the GI50 [45] was 13.1 µM and the GI50 [46] was 18.9 µM. For the same molecule, the GI50 [47] was 31.8 µM.
